Experimental data published in US11179364B2, “Licofligozin for the treatment of non-alcoholic steatohepatitis” (NOVARTIS AG, priority 2017, dated 2021).
Like-named read-outs stand apart in the source and are kept apart here.

Assays:
P-glycoprotein (P-gp) = P-glycoprotein (P-gp) (Homo sapiens, UniProt P08183); experiment: P-glycoprotein substrate assessment; type: in vitro ADME
[1] = Oral toxicity studies in dogs; type: in vivo
[2] = test system: other glucose transporters (GLUTs); experiment: Selectivity against other glucose transporters; type: biochemical
hERG = hERG (Homo sapiens, UniProt Q12809); experiment: hERG inhibitory activity; type: biochemical; details: at the maximal soluble concentration (16 μM)
Sequence of hERG (Q12809 whole entry): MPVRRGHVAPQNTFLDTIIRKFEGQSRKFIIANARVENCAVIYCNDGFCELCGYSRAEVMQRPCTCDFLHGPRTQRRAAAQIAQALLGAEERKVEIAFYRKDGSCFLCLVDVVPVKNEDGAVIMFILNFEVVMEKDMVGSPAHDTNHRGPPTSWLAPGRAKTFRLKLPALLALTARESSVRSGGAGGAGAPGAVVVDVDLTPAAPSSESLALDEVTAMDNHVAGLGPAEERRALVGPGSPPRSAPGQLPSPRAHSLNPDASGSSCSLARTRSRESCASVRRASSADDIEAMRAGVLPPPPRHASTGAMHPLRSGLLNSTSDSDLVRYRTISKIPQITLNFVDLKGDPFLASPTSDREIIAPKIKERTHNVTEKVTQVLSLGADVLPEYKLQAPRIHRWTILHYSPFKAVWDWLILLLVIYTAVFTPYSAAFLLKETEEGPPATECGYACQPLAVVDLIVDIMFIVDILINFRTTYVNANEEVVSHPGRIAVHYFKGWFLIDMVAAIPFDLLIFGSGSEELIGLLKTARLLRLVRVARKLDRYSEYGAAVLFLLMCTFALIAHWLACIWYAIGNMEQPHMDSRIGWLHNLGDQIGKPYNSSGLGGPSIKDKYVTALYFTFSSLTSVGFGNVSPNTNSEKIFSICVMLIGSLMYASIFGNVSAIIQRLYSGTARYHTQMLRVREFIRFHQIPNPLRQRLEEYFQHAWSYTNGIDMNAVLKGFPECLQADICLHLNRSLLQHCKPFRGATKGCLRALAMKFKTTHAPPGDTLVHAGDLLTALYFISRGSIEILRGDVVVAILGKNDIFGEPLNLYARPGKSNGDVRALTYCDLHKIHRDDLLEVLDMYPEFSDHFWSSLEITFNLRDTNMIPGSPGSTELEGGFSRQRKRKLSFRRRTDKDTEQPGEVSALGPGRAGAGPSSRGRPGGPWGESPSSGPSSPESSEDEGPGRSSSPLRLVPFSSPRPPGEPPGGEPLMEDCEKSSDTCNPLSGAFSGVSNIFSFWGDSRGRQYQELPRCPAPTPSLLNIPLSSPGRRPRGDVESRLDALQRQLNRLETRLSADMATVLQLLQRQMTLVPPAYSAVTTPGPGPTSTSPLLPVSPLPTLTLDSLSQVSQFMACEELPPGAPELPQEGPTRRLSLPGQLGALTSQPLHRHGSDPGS

[3] = In vitro pharmacokinetic drug interaction studies; type: in vitro ADME
[4] = Clinical pharmacokinetics; details: human, in vivo; read-out: pharmacokinetic elimination half-life
Permeability = type: in vitro ADME
[5] = 12 week study in obese patients; type: in vivo, human
[6] = Excretion of [14C] LIK066-related radioactivity in rats; type: in vivo
[7] = Single and multiple dose studies in healthy volunteers and T2DM patients; type: in vivo, human
SGLT1 = biological target: T1, SGLT1 (Homo sapiens, UniProt P13866); experiment: SGLT1 inhibition; type: biochemical
T1 sequence (P13866 1-664): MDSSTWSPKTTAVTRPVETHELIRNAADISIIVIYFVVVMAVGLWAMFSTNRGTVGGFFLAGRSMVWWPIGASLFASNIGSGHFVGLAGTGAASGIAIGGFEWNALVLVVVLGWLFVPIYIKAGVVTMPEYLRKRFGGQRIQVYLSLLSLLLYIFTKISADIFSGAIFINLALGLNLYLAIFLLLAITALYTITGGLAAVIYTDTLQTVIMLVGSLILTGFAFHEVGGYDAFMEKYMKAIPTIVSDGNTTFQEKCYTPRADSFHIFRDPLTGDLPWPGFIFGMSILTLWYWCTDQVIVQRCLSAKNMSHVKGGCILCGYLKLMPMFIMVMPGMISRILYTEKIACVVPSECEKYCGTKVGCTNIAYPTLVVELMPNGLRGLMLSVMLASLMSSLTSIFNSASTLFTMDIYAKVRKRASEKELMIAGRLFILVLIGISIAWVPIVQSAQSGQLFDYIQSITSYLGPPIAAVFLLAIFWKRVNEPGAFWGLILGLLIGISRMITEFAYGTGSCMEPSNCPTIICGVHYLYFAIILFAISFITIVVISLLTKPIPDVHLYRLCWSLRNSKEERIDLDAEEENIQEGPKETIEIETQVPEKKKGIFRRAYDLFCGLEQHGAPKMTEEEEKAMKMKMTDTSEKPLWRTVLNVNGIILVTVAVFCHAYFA

human hepatocytes = experiment: Clearance pathways in human hepatocytes; type: in vitro ADME
[8] = Dose/exposure-response analysis from completed clinical studies; type: in vivo, human
Description: The primary efficacy endpoint for dose/exposure-response analysis for LIK066, from previously completed clinical studies, was body weight loss, and other pharmacodynamic endpoints such as urinary and plasma glucose. The estimated ED50 and ED90 of LIK066 based on once a day dosing were approximately 5 mg and 50 mg, respectively, based on a body weight loss model. The estimated ED50 and ED90 based on other relevant pharmacodynamics endpoints such as urinary and plasma glucose were approximately 3-10 mg and 30-100 mg, respectively. […] Therefore this dose is tested first, with introduction of the 30 mg dose later to assure futility evaluation prior to enrollment of the entire cohort for the study. […] The diarrhea associated with LIK066 could be mitigated by dietary modification such as reduction in carbohydrate intake. Body weight loss is an important factor in therapeutic development for NASH as weight loss through either bariatric surgery or life style modification deters progression of the disease.

[9] = rat, in vivo
Solubility = type: physicochemical
[10] = Oral toxicity studies in rats
[11] = Tissue distribution study in rats; type: in vivo
SGLT2 = biological target: T2, SGLT2 (Homo sapiens, UniProt P31639); experiment: SGLT2 inhibition; type: biochemical
T2 sequence (P31639 1-672): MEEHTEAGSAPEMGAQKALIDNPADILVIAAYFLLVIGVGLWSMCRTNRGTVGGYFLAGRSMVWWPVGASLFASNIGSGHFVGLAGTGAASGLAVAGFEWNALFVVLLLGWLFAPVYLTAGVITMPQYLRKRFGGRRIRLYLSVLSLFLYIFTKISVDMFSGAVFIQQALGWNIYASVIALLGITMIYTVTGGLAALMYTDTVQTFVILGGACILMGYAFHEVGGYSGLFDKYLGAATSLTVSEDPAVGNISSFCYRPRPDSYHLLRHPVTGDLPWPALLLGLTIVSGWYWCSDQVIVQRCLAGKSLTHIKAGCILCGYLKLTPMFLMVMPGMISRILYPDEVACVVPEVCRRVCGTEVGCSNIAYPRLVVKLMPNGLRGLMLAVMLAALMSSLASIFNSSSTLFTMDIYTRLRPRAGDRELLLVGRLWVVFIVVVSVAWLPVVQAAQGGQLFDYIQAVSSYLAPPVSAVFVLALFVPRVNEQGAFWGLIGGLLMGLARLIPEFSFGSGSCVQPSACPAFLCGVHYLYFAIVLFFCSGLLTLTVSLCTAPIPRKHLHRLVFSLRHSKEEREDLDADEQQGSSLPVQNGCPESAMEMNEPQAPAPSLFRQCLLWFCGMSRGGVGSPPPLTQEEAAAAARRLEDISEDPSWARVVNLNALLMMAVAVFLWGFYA

[12] = Dog pharmacokinetics, tablet vs solution, crossover; type: in vivo; details: single dose of 50 mg/dog, dogs
[13] = once a day dosing, body weight loss model
[14] = urinary and plasma glucose endpoints

Sequence of P-glycoprotein (P-gp) (P08183 whole entry): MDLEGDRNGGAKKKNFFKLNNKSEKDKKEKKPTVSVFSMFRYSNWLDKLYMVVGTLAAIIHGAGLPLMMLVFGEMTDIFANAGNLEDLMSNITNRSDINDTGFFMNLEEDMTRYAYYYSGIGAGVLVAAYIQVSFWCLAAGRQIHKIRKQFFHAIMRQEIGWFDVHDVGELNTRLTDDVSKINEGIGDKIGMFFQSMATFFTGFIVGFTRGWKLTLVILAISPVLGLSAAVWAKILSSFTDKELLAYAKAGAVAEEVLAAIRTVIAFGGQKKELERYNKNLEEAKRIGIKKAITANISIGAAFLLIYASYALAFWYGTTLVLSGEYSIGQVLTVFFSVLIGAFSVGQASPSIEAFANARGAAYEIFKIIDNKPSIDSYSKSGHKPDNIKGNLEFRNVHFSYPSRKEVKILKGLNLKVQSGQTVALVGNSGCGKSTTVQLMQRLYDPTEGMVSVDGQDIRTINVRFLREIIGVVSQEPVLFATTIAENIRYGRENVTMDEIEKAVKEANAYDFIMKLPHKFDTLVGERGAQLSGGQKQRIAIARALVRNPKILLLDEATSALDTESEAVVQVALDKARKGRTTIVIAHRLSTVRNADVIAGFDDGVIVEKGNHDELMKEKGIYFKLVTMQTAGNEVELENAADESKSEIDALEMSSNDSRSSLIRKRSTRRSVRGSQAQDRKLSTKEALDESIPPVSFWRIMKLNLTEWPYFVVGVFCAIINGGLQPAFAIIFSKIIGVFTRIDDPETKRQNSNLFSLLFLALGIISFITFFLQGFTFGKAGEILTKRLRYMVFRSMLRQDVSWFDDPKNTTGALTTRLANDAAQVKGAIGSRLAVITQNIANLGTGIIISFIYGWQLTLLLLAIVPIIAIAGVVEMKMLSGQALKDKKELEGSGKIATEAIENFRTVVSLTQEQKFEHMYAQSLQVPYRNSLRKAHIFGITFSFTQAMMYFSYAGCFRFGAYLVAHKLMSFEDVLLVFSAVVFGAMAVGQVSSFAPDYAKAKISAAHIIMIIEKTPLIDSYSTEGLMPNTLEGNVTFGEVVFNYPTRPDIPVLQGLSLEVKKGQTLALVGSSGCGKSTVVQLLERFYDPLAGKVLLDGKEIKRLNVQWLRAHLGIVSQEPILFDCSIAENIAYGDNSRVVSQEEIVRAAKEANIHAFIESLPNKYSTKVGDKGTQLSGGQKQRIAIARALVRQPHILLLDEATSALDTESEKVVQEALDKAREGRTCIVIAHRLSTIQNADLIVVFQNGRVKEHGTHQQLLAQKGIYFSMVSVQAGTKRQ

In the case of `CCc1ccc([C@@H]2O[C@H](CO)[C@@H](O)[C@H](O)[C@H]2O)cc1Cc1ccc2c(c1)OCCO2` [LIK066, (2S,3R,4R,5S,6R)-2-(3-((2,3-dihydrobenzo[b][1,4]dioxin-6-yl)methyl)-4-ethylphenyl)-6-(hydroxymethyl)tetrahydro-2H-pyran-3,4,5-triol], the “P-glycoprotein (P-gp) substrate” value (P-glycoprotein (P-gp)) was “is a substrate”, the NOAEL ([1]; dog, in vivo, oral, read-out: no observed adverse effect level (NOAEL)) was 0.5 mg/kg/day and the body weight gain ([1]; dogs, at almost all doses) was “reduced body weight gain”. The doses not tolerated ([1]; dogs, prolonged periods (≥6 weeks), body weight loss, fecal changes and dehydration) was no less than 10 mg/kg, the “principal target organs of toxicity” value ([1]; oral, dogs, up to 13-weeks) was “gastrointestinal tract, kidney, urinary tract, bone, liver and adrenal glands” and the “selectivity against other glucose transporters (GLUTs)” value [2] was “high selectivity”. The “inhibitory hERG activity” value (hERG) was “no significant inhibitory hERG activity”, the “potential to act as a perpetrator of pharmacokinetic drug interactions” value [3] was “low potential” and the half-life [4] was 10 to 16 h. For the same molecule, the permeability (Permeability) was “good permeability”, the weight loss ([5]; 150 mg daily dose (qd, b.i.d or tid), obese patients, 12 week treatment) was roughly 6% and the “weight loss” value ([5]; 150 mg dose, previous phase 2 study) was “significant weight loss”. For the same molecule, the “dose-limiting toxicity / primary AE” value ([5]; 150 mg qd, twelve weeks) was “diarrhea”, the safety and tolerability ([5]; 150 mg qd, twelve weeks, normoglycemic and dysglycemic subjects / obese patients) was “generally safe and well tolerated” and the “excretion of [14C] LIK066-related radioactivity” value [6] was “excreted in both urine and feces, mainly as metabolites”. The safety and tolerability ([7]; healthy volunteers and patients with T2DM) was “safe and tolerated”, the pharmacokinetic profile ([7]; human, in vivo) was “favorable” and the placebo-adjusted weight loss ([7]; over 2 weeks, healthy subjects and patients with T2DM) was “up to 3%”. For the same molecule, the “glucose AUC after an oral glucose tolerance test (OGTT)” value ([7]; patients with T2DM) was “significantly lowered”, the glucosuria ([7]; single and multiple doses, healthy volunteers and patients with T2DM) was “induced glucosuria” and the “inhibition of SGLT1” value (SGLT1) was “potent inhibitor”. For the same molecule, the predominant clearance pathway (human hepatocytes) was “Direct glucuronidation (via the UDP-glucuronosyl transferase (UGT1A9))”, the “second clearance pathway (followed by)” value (human hepatocytes) was “oxidative metabolism (CYP3A4)” and the “estimated ED50” value [8, 13] was “approximately 5 mg”. The “estimated ED90” value [8, 13] was roughly 50 mg, the “estimated ED50” value [8, 14] was 3 to 10 mg and the “estimated ED90” value [8, 14] was 30 to 100 mg. For the same molecule, the tolerated dose ([9]; 4 weeks) was “up to 100 mg/kg”, the tolerated dose ([9]; 26 weeks) was “up to 30 mg/kg” and the solubility (Solubility) was “good solubility”. The “principal target organs of toxicity” value ([10]; oral, rats, up to 26-weeks) was “gastrointestinal tract, kidney, urinary tract, bone, liver and adrenal glands”, the NOAEL ([10]; rat, in vivo, oral) was 5 mg/kg/day and the body weight gain ([10]; rats, at almost all doses) was “reduced body weight gain”. The “distribution to the central nervous system and reproductive organs” value [11] was “relatively low distribution”, the “inhibition of SGLT2” value (SGLT2) was “potent inhibitor” and the “pharmacokinetics, tablet vs solution formulations” value [12] was “comparable”.
